Measurements: patent publication EP1975177B1, “An appetite-suppressing peptide, its compositions and use” (Novo Nordisk A/S, priority 1996, dated 2011)
Where a SMILES comes first, the peptide text is derived from it.

Legend:
mice = assay: Appetite suppression in mice, consumption of 20% sucrose solution; format: in vivo; details: intraperitoneal injection, 50 micrograms, in phosphate buffered saline
Experimental: Mice were deprived of their normal feed for two days and given free access to a 20% sucrose solution on the first day of feed deprivation. After the 2-day feed deprivation period, mice were injected intraperitoneally with 0.5ml of a solution containing the test substance. Thirty minutes after injection, individual mice were placed in one of eight 15 cm^2 test box with a stainless steel grid floor and a glass drinking tube which projected into the box. The drinking tube was connected to a reservoir containing a 20% sucrose solution, and the interior of the drinking tube contained an electrode enabling the detection of drinking contacts with the solution by measuring the flow of a weak (unnoticeable) electric current through mice by means of an electronic apparatus connected to the drinking tube electrode and the stainless steel grid floor. Consumption of the sucrose solution was measured over a 10 minute period by electronically recording the total amount of contact with the sucrose solution during the test session. The degree of appetite suppression produced by a given test substance was determined by statistical comparison of the duration of sucrose consumption by control (vehicle treated) mice with that of mice treated with a test substance. The degree of appetite suppression in a treated group of mice was expressed as percent of the control groups response. […]

fasted rats = details: cited from earlier work

## CC[C@H](C)[C@H](NC(=O)[C@H](Cc1ccccc1)NC(=O)[C@H](CC(=O)O)NC(=O)[C@H](CCCNC(=N)N)NC(=O)[C@@H](NC(=O)[C@H](C)NC(=O)[C@H](CC(C)C)NC(=O)[C@H](CC(N)=O)NC(=O)[C@H](CC(=O)O)NC(=O)[C@H](CC(C)C)NC(=O)[C@@H](NC(=O)[C@@H](NC(=O)[C@H](CC(N)=O)NC(=O)[C@H](CCSC)NC(=O)[C@H](CCC(=O)O)NC(=O)[C@H](CC(=O)O)NC(=O)[C@H](CO)NC(=O)[C@H](Cc1ccccc1)NC(=O)[C@H](CO)NC(=O)CNC(=O)[C@H](CC(=O)O)NC(=O)[C@H](C)NC(=O)[C@@H](N)Cc1c[nH]cn1)[C@@H](C)O)C(C)C)[C@@H](C)O)C(=O)N[C@@H](CC(N)=O)C(=O)N[C@@H](Cc1c[nH]c2ccccc12)C(=O)N[C@@H](CC(C)C)C(=O)N[C@@H](CC(C)C)C(=O)N[C@@H](Cc1c[nH]cn1)C(=O)N[C@H](C(=O)N[C@@H](CCCCN)C(=O)N[C@H](C(=O)N[C@H](C(=O)N[C@@H](CC(=O)O)C(=O)O)[C@@H](C)O)[C@@H](C)CC)[C@@H](C)O [synthetic porcine GLP-2, porcine GLP-2] (H-HADGSFSDEMNTVLDNLATRDFINWLLHTKITD-OH)
mice
  suppressed sucrose consumption: 38%

## GLP-1
Fasted rats; fasted rats, intracerebroventricular (ICV) administration
  feeding: inhibited feeding
Fasted rats; peripheral administration
  effect on feeding behaviour: no effect on feeding behaviour

## Glucagon
Fasted rats; fasted rats, intraperitoneal administration of pharmacological doses
  effect on food intake: no effect on food intake
